Measurements from ChEMBL document CHEMBL5113392, “Novel hybrid pyrrolidinedione-thiazolidinones as potential anticancer agents: Synthesis and biological evaluation” (Eur J Med Chem, 2022).
Active and inactive are the calls of the source. No cut-off for these calls is given here.

How the values were obtained:
HCT-116 = assay: Anticancer activity against human HCT-116 cells assessed as lethality incubated for 48 hrs by SRB assay; type: functional; settings: read-out: LC50 (the source's name)
TK-10 = assay: Anticancer activity against human TK-10 cells assessed as total growth inhibition incubated for 48 hrs by SRB assay; type: functional
MOLT-4 [1] = assay: Anticancer activity against human MOLT-4 cells assessed as total growth inhibition incubated for 48 hrs by SRB assay; type: functional
Jurkat = assay: Induction of morphological changes in human Jurkat cells assessed as chromatin fragmentation incubated for 24 hrs by Hoechst 33258 and propidium iodide staining based fluorescence microscopy; type: functional, cell-based
HOP-62 = assay: Anticancer activity against human HOP-62 cells assessed as lethality incubated for 48 hrs by SRB assay; type: functional; settings: read-out: LC50 (the source's name)
[2] = Cytotoxicity against mitogen activated human peripheral blood lymphocytes assessed as cell growth inhibition incubated for 24 hrs by MTT assay; type: toxicity, cell-based, Lymphocyte
BT-549 [3] = assay: Anticancer activity against human BT-549 cells assessed as total growth inhibition incubated for 48 hrs by SRB assay; type: functional
[4] = Selectivity index, ratio of GI50 for human HaCaT cells to GI50 for human Jurkat cells; type: toxicity; settings: HaCaT cells versus Jurkat cells, read-out: RatioGI50
SK-MEL-28 = assay: Anticancer activity against human SK-MEL-28 cells assessed as lethality incubated for 48 hrs by SRB assay; type: functional; settings: read-out: LC50 (the source's name)
U-251 [5] = assay: Anticancer activity against human U-251 cells assessed as total growth inhibition incubated for 48 hrs by SRB assay; type: functional
UACC-257 [6] = assay: Anticancer activity against human UACC-257 cells assessed as total growth inhibition incubated for 48 hrs by SRB assay; type: functional
MOLT-4 [7] = assay: Anticancer activity against human MOLT-4 cells assessed as lethality incubated for 48 hrs by SRB assay; type: functional; settings: read-out: LC50 (the source's name)
NCI-H226 = assay: Anticancer activity against human NCI-H226 cells assessed as lethality incubated for 48 hrs by SRB assay; type: functional; settings: read-out: LC50 (the source's name)
NCI-H23 [8] = assay: Anticancer activity against human NCI-H23 cells assessed as lethality incubated for 48 hrs by SRB assay; type: functional; settings: read-out: LC50 (the source's name)
KM12 = assay: Anticancer activity against human KM12 cells assessed as lethality incubated for 48 hrs by SRB assay; type: functional; settings: read-out: LC50 (the source's name)
[9] = Selectivity index, ratio of GI50 for human HaCaT cells to GI50 for human MCF7 cells; type: toxicity; settings: HaCaT cells versus MCF7 cells, read-out: RatioGI50
M14 = assay: Anticancer activity against human M14 cells assessed as lethality incubated for 48 hrs by SRB assay; type: functional; settings: read-out: LC50 (the source's name)
Lymphocyte = assay: Induction of morphological changes in mitogen activated human peripheral blood lymphocytes assessed as increase in number of single cells incubated for 24 hrs by Hoechst 33258 and propidium iodide staining based fluorescence microscopy; type: toxicity, cell-based
SK-OV-3 [10] = assay: Anticancer activity against human SK-OV-3 cells assessed as total growth inhibition incubated for 48 hrs by SRB assay; type: functional
SF-539 [11] = assay: Anticancer activity against human SF-539 cells assessed as lethality incubated for 48 hrs by SRB assay; type: functional; settings: read-out: LC50 (the source's name)
786-0 = assay: Anticancer activity against human 786-0 cells assessed as total growth inhibition incubated for 48 hrs by SRB assay; type: functional
A549 = assay: Anticancer activity against human A549 cells assessed as cell growth inhibition incubated for 72 hrs by MTT assay; type: functional
EKVX [12] = assay: Anticancer activity against human EKVX cells assessed as growth inhibition incubated for 48 hrs by SRB assay; type: functional
SK-OV-3 [13] = assay: Anticancer activity against human SK-OV-3 cells assessed as lethality incubated for 48 hrs by SRB assay; type: functional; settings: read-out: LC50 (the source's name)
ACHN = assay: Anticancer activity against human ACHN cells assessed as total growth inhibition incubated for 48 hrs by SRB assay; type: functional
OVCAR-8 = assay: Anticancer activity against human OVCAR-8 cells assessed as growth inhibition incubated for 48 hrs by SRB assay; type: functional
SK-MEL-2 = assay: Anticancer activity against human SK-MEL-2 cells assessed as total growth inhibition incubated for 48 hrs by SRB assay; type: functional
NCI-H322M = assay: Anticancer activity against human NCI-H322M cells assessed as growth inhibition incubated for 48 hrs by SRB assay; type: functional
EKVX [14] = assay: Anticancer activity against human EKVX cells assessed as total growth inhibition incubated for 48 hrs by SRB assay; type: functional
NCI-H23 [15] = assay: Anticancer activity against human NCI-H23 cells assessed as growth inhibition incubated for 48 hrs by SRB assay; type: functional
UACC-62 = assay: Anticancer activity against human UACC-62 cells assessed as lethality incubated for 48 hrs by SRB assay; type: functional; settings: read-out: LC50 (the source's name)
[16] = Selectivity index, ratio of GI50 for human HaCaT cells to GI50 for human MDA-MB-231 cells; type: toxicity; settings: HaCaT cells versus MDA-MB-231 cells, read-out: RatioGI50
NCI/ADR-RES [17] = assay: Anticancer activity against human NCI/ADR-RES cells assessed as lethality incubated for 48 hrs by SRB assay; type: functional; settings: read-out: LC50 (the source's name)
SF-539 [18] = assay: Anticancer activity against human SF-539 cells assessed as total growth inhibition incubated for 48 hrs by SRB assay; type: functional
SF-268 [19] = assay: Anticancer activity against human SF-268 cells assessed as lethality incubated for 48 hrs by SRB assay; type: functional; settings: read-out: LC50 (the source's name)
HL-60 = assay: Anticancer activity against human HL-60 cells assessed as lethality incubated for 48 hrs by SRB assay; type: functional; settings: read-out: LC50 (the source's name)
OVCAR-4 = assay: Anticancer activity against human OVCAR-4 cells assessed as growth inhibition incubated for 48 hrs by SRB assay; type: functional
U-251 [20] = assay: Anticancer activity against human U-251 cells assessed as cell growth inhibition incubated for 72 hrs by MTT assay; type: functional
UACC-257 [21] = assay: Anticancer activity against human UACC-257 cells assessed as growth inhibition incubated for 48 hrs by SRB assay; type: functional
COLO 205 = assay: Anticancer activity against human COLO 205 cells assessed as total growth inhibition incubated for 48 hrs by SRB assay; type: functional
[22] = Selectivity index, ratio of GI50 for human HaCaT cells to GI50 for human HeLa cells; type: toxicity; settings: HaCaT cells versus HeLa cells, read-out: RatioGI50
SF-268 [23] = assay: Anticancer activity against human SF-268 cells assessed as growth inhibition incubated for 48 hrs by SRB assay; type: functional
NCI/ADR-RES [24] = assay: Anticancer activity against human NCI/ADR-RES cells assessed as growth inhibition incubated for 48 hrs by SRB assay; type: functional
Hs-578T = assay: Anticancer activity against human Hs-578T cells assessed as growth inhibition incubated for 48 hrs by SRB assay; type: functional
[25] = Selectivity index, ratio of GI50 for human HaCaT cells to GI50 for human HCT116-p53-null cells; type: toxicity; settings: HaCaT cells versus HCT116-p53-null cells, read-out: RatioGI50
SR = assay: Anticancer activity against human SR cells assessed as total growth inhibition incubated for 48 hrs by SRB assay; type: functional
RPMI-8226 = assay: Anticancer activity against human RPMI-8226 cells assessed as total growth inhibition incubated for 48 hrs by SRB assay; type: functional
BT-549 [26] = assay: Anticancer activity against human BT-549 cells assessed as growth inhibition incubated for 48 hrs by SRB assay; type: functional
SK-OV-3 [27] = assay: Anticancer activity against human SK-OV-3 cells assessed as cell growth inhibition incubated for 72 hrs by MTT assay; type: functional

In the case of O=C1CC(N2C(=O)/C(=C/C(Cl)=C/c3ccc([N+](=O)[O-])cc3)SC2=S)C(=O)N1c1ccc(Cl)cc1 (stereo not drawn), the CC50 (HCT-116) is reported as 6.85 µM, the TGI (TK-10) is reported as 8.63 µM and the TGI (MOLT-4 [1]) is reported as 13.4 µM. For the same molecule, the Activity (Jurkat) was “Active”, the CC50 (HOP-62) was greater than 100 µM and the GI50 at 24 h [2] was 36.8 µM. For the same molecule, the TGI (BT-549 [3]) was 3.74 µM, the selectivity ratio [4] was 29.4 and the CC50 (SK-MEL-28) was 9.41 µM. For the same molecule, the TGI (U-251 [5]) was 2.47 µM, the TGI (UACC-257 [6]) was 66.5 µM and the CC50 (MOLT-4 [7]) was 62.6 µM. It also gave a CC50 (NCI-H226) greater than 100 µM, a CC50 (NCI-H23 [8]) of 15 µM and a CC50 (KM12) greater than 100 µM. For the same molecule, the selectivity ratio [9] was 12.6, the CC50 (M14) was greater than 100 µM and the Activity (Lymphocyte) was “Toxic”. It also gave a TGI (SK-OV-3 [10]) greater than 100 µM, a CC50 (SF-539 [11]) greater than 100 µM and a TGI (786-0) of 3.33 µM. The GI50 (A549) was 63.9 µM, the GI50 (EKVX [12]) was 3.11 µM and the CC50 (SK-OV-3 [13]) was greater than 100 µM. It also gave a TGI (ACHN) of 3.48 µM, a GI50 (OVCAR-8) of 0.832 µM and a TGI (SK-MEL-2) of 32.1 µM. The GI50 (NCI-H322M) was 3 µM, the TGI (EKVX [14]) was greater than 100 µM and the GI50 (NCI-H23 [15]) was 1.64 µM. It also gave a CC50 (UACC-62) of 12 µM, a selectivity ratio [16] of 15.5 and a CC50 (NCI/ADR-RES [17]) greater than 100 µM. The TGI (SF-539 [18]) was 4.14 µM, the CC50 (SF-268 [19]) was greater than 100 µM and the CC50 (HL-60) was greater than 100 µM. It also gave a GI50 (OVCAR-4) of 5.55 µM, a GI50 (U-251 [20]) of 8.93 µM and a GI50 (UACC-257 [21]) of 2.92 µM. It also gave a TGI (COLO 205) of 3.76 µM, a selectivity ratio [22] of 15 and a GI50 (SF-268 [23]) of 3.07 µM. It also gave a GI50 (NCI/ADR-RES [24]) of 1.01 µM, a GI50 (Hs-578T) of 1.8 µM and a selectivity ratio [25] of 10.7. The TGI (SR) was 14.2 µM, the TGI (RPMI-8226) was 0.979 µM and the GI50 (BT-549 [26]) was 1.75 µM. For the same molecule, the GI50 (SK-OV-3 [27]) was 65.9 µM.
With O=C1CC(N2C(=O)/C(=C/C(Cl)=C/c3ccc([N+](=O)[O-])cc3)SC2=S)C(=O)N1c1ccc(O)cc1 (stereo not drawn) the CC50 (HCT-116) was 5.22 µM, the TGI (TK-10) was 3.79 µM and the TGI (MOLT-4 [1]) was 15.3 µM. The Activity (Jurkat) was “Active”, the CC50 (HOP-62) was greater than 100 µM and the GI50 at 24 h [2] was 67.1 µM. For the same molecule, the TGI (BT-549 [3]) was 4.21 µM, the selectivity ratio [4] was 56.6 and the CC50 (SK-MEL-28) was 9.05 µM. The TGI (U-251 [5]) was 2.21 µM, the TGI (UACC-257 [6]) was 9.12 µM and the CC50 (MOLT-4 [7]) was greater than 100 µM. For the same molecule, the CC50 (NCI-H226) was 50.3 µM, the CC50 (NCI-H23 [8]) was 7.94 µM and the CC50 (KM12) was 15.8 µM. For the same molecule, the selectivity ratio [9] was 18.4, the CC50 (M14) was 7.51 µM and the Activity (Lymphocyte) was “Toxic”. For the same molecule, the TGI (SK-OV-3 [10]) was 9.26 µM, the CC50 (SF-539 [11]) was 8.43 µM and the TGI (786-0) was 4.8 µM. It also gave a GI50 (A549) of 7.25 µM, a GI50 (EKVX [12]) of 3.25 µM and a CC50 (SK-OV-3 [13]) of 32 µM. For the same molecule, the TGI (ACHN) was 2.76 µM, the GI50 (OVCAR-8) was 2.16 µM and the TGI (SK-MEL-2) was 7.83 µM. For the same molecule, the GI50 (NCI-H322M) was 2.34 µM, the TGI (EKVX [14]) was 11.7 µM and the GI50 (NCI-H23 [15]) was 1.56 µM. For the same molecule, the CC50 (UACC-62) was 6.86 µM, the selectivity ratio [16] was 11.9 and the CC50 (NCI/ADR-RES [17]) was greater than 100 µM. The TGI (SF-539 [18]) was 3.81 µM, the CC50 (SF-268 [19]) was 47.1 µM and the CC50 (HL-60) was greater than 100 µM. It also gave a GI50 (OVCAR-4) of 5.13 µM, a GI50 (U-251 [20]) of 1.1 µM and a GI50 (UACC-257 [21]) of 2.48 µM. It also gave a TGI (COLO 205) of 5.04 µM, a selectivity ratio [22] of 12 and a GI50 (SF-268 [23]) of 2.43 µM. The GI50 (NCI/ADR-RES [24]) was 2.13 µM, the GI50 (Hs-578T) was 2.8 µM and the selectivity ratio [25] was 13. The TGI (SR) was 4.97 µM, the TGI (RPMI-8226) was 4.36 µM and the GI50 (BT-549 [26]) was 2.03 µM. The GI50 (SK-OV-3 [27]) was greater than 100 µM.
